Reference: publication PMC2213140 (The Journal of Experimental Medicine, 2005)

Tests used:
[1] = system: 1G4 CTL clone with peptide-pulsed T2 target cells; type: cell-based; conditions: 30 min at 37°C
[2] = system: splenocytes from ESO 9V- or ESO 9C-immunized A2K^b mice; assay: Ex-vivo IFN-γ ELISPOT assay; type: cell-based, mouse; conditions: reducing agent TCEP, unpublished data
[3] = system: 1G4 CTL clone with peptide-pulsed T2 target cells; assay: Live cell video microscopy of CTL lytic granule polarization; type: cell-based; conditions: T2 cells pulsed with 1 μM peptide
[4] = system: Jurkat cells transfected with A2K^b cDNA; assay: In vitro killing assay with CTL from ESO 9V-immunized mice; type: cell-based
[5] = target: HLA-A2 loaded with the NY-ESO-1 157-165 analogue peptide …; assay: SPR
[6] = target: HLA-A2 loaded with the wild-type NY-ESO-1 157-165 peptide …; assay: SPR

Substance	granule polarization [1]	effect of TCEP on IFN-γ responses to ESO 9C peptide [2]	rate of lytic granule polarization [3]	time from initial contact to granule polarization at the synapse ([3]; 1 h at 37°C, single CTL followed)	time without polarization of lytic granules toward either target ([3]; second CTL (red arrow))	lysis of peptide-loaded target cells by CTL from ESO 9V-immunized mice [4]	Kd [5]	Kd [6]
SLLMWITQC [ESO 9C]	polarization was poor	responses were enhanced in the presence of the reducing agent TCEP	lytic granule polarization is slow	≤ 17 min	> 22 min	capable of lysing target cells loaded with wild-type ESO 9C peptide		
soluble 1G4 TCR (NY-ESO-1 157-165-specific TCR from the 1G4 CTL clone)							5 µM	13.3 µM
